Measured values from patent US20050208394A1, “Dye-containing curable composition, color filter and method of producing the color filter” (FUJI PHOTO FILM CO., LTD., priority 2004, published 2005).

Legend:
[1] = Heat resistance: change in chromaticity ΔEab* of the coated glass substrate after hot plate heating; format: physicochemical; settings: 200° C. for one hour
Protocol: The glass substrate coated with the dye resist solution was placed on a hot plate such that its surface was in contact with the hot plate and heated at 200° C. for one hour to measure a change in chromaticity, namely ΔEab* value, before and after the substrate was placed, by using a chromaticity meter (trade name: MCPD-1000, manufactured by Otsuka Electronics Co., Ltd.). The obtained ΔEab* value was adopted as an index showing the degree of […] and evaluated based on the following criteria. The smaller the ΔEab* value is, the higher the heat resistance is.
• A: ΔEab* was 5 or less. • B: ΔEab* exceeded 5 and was less than 10. • C: ΔEab* was 10 or more. —Light Fastness—

[2] = Light fastness: change in chromaticity ΔEab* of the coated glass substrate after xenon lamp irradiation; format: physicochemical; settings: xenon lamp 50,000 Lux for 10 hours
Protocol: The glass substrate coated with the dye resist solution was irradiated with 50,000 Lux light from a xenon lamp for 10 hours (corresponding to 500,000 Lux·h) and then, a change in chromaticity, namely ΔEab* value, before and after the irradiation was measured. The obtained ΔEab* value was adopted as an index showing the degree of […] and evaluated based on the following criteria. The smaller the ΔEab* value is, the higher the […] is.
• A: ΔEab* was 3 or less. • B: ΔEab* exceeded 3 and was less than 10. • C: ΔEab* was 10 or more. —Pattern Shape—
A cyan pattern image was obtained by carrying out coating, prebaking, irradiation, developing, rinsing and drying in the same manner as in Example 1 and then heated at 180° C. for 5 minutes. Also, the heat resistance, light fastness and pattern shape were evaluated in the same manner as in Example 1 and also the solubility of the dye (exemplified compound (3)) was evaluated visually according to the same criteria as in Example 1 from the degree of solubility when the dye was dissolved in the above “1) Preparation of a dye resist solution (positive type dye-containing curable composition)”.

[3] = negative type dye resist film on glass
[4] = positive type dye resist film on glass

Heat resistance [1, 3]	Heat resistance [1, 4]	Light fastness [2, 3]	Light fastness [2, 4]	Molecule
A (ΔEab* was 5 or less.)	A (ΔEab* was 5 or less.)	A (ΔEab* was 3 or less.)	A (ΔEab* was 3 or less.)	Tetra-α-(3,5-dimethylpyrazolyl)zinc phthalocyanine [Exemplified compound (3)]
A (ΔEab* was 5 or less.)	A (ΔEab* was 5 or less.)	A (ΔEab* was 3 or less.)	A (ΔEab* was 3 or less.)	Tetra-β-(3,5-dimethylpyrazolyl)zinc phthalocyanine [Exemplified compound (4)]
	A (ΔEab* was 5 or less.)		A (ΔEab* was 3 or less.)	Cc1cc(C)n(-c2ccc3c(c2)-c2nc-3nc3[n-]c(nc4nc(nc5[n-]c(n2)c2ccc(-n6nc(C)cc6C)cc52)-c2cc(-n5nc(C)cc5C)ccc2-4)c2ccc(-n4nc(C)cc4C)cc32)n1.[Ni+2] [Exemplified compound (16)]
